Assay results as given in US7468255B2, “Method for assaying for natural killer, cytotoxic T-lymphocyte and neutrophil-mediated killing of target cells using real-time microelectronic cell sensing technology” (ACEA Biosciences, priority 2002, dated 2008).

Columns and labels:
[1] = tested on: various cell types (listed in Table 1); assay: RT-CES profiling of dynamic cell responses to anti-cancer drugs; format: cell-based; conditions: for cell index curve pattern: cell lines of Table 1
Protocol: FIGS. 10A and B show the responses of various cell types (listed in Table 1) to olomoucine treatment as monitored using a cell-substrate imepdnace monitoring system of the presnet invention. The cellular responses were continuously monitored at 15 or 30 or 60 minutes time interval before and after treatment with olomoucine. […] Take the treatment of olomoucine at 100 uM as an example. […] The “near-constant” cell index curves were also observed for cells treated with roscovitine, which is another compound causing cell cycle arrest. The cell index curves shown in FIGS. 10A and 10B are strikingly different from the cell index curves shown in FIGS. 9A and 9B, and FIGS. 11A and 11B, where compounds follow different mechanism of compound action.
The cellular responses were continuously monitored at 15 or 30 or 60 minutes time interval before and after treatment with doxorubicin. […] Take the treatment of doxoorubincin at 3.13 uM as an example. For most of cell types tested, initially after the treatment, cell index increased with time in similar way to the cell index from DMSO control wells. After 10-20 hrs, depending on cell type, the cell index reached a peak and started decreasing with time. From that time on, the cell index monotonically decreases. […] Both Doxorubicin and 5-Fluorouacil act on cells through effects on DNA replication or topology.
The cellular responses were continuously monitored at 15 or 30 or 60 minutes time interval before and after treatment with paclitaxel. […] Take the treatment of palitaxel at 0.78-12.5 nM range as examples. […] For one particular cell index curve, after the cell index reached a minimum, it then reversed its decreasing trend and started to increase. […] All these compounds—i.e., paclitaxel, vinblastin and colcemid, are so called mitotic poisons and follow similar mechanism of drug action. For example, both vinblastin and paclitaxel act on microtubule dynamics within a cell.
In this study, we used the RT-CES system to dynamically monitor cancer cell responses to chemotherapeutic compounds with characterized mechanisms, and to profile the specific cell response patterns. Thirteen cancer cell lines including cancers of breast, prostate, lung, colon, ovary, kidney, fibroblast, and central nervous system were tested (Table 1). Each cancer cell type was treated with 11 chemotherapeutic compounds, classified as DNA damaging agents, protein kinase inhibitors, anti-mitotic drugs, cell cycle specific inhibitors, protein synthesis inhibitors plus a compound of unknown category (Table 2). Dynamic and dose dependent cell-compound interaction patterns were characterized and summarized for all the tested cell lines and compounds. The profiles for three drugs, doxorubicin, olomoucine and paclitaxel against a panel of 12 different cell lines are presented in FIGS. 9, 10 and 11, respectively. In addition, we characterized the biological effect of these compounds on cells by monitoring cell cycle progression, cell viability and morphological status of the cells in an attempt to correlate specific cellular response to the shape of the cell index trace (FIGS. 12, 13 and 14). Furthermore we calculated the time-dependent IC-50 values for each compound against the various cell lines (FIG. 15) and developed an algorithm to calculate Cell Change Index to profile the dynamic cell response of the different chemotherapeutic agents across the different cell lines. Cell Change Index was calculated for the dynamic RT-CES responses of different cell lines to different chemotherapeutic agents using the definitions described above. Based on the time-dependent values of CCI, each CCI value region across the time scale is represented by black-white shading-based coding. […]

A549 cells [2] = format: cell-based; conditions: for effect of inhibitor alone on A549 baseline: A549 target cells without NK cells
Protocol: (§1) In order to observe the kinetics of drug interaction with target cells, A549 non-small lung cancer cells were seeded in ACEA 96× e-plate™ and continuously monitored until the cells reached the log growth phase at which point different concentrations of paclitaxel were added to the cells at the indicated final concentration. […] Remarkably, the cells recover from the initial cytotoxic effect of the drug and start to re-proliferate. While it remains to be determined if this phenomenon is due to metabolism and inactivation of paclitaxel or due to the emergence of paclitaxel-resistant subpopulation, this experiment clearly exemplifies the tremendous advantage of real-time measurement which is offered by the RT-CES system and allows the user to the opportunity to observe and assess the entire history of drug interaction with the target cells which provides further information in addition to cell viability or cytotoxicity. The phenomenon observed in FIG. 20A would've been easily missed by traditional single-point assays such as MTT.
Yet another major advantage of using the RT-CES system to continually monitor the interaction of drugs with target cells is that the user can obtain insight into the mechanism of action of the drug of interest. […] The cells were treated with either DMSO as the vehicle control or with 100 μM Olomoucine which is a CDK inhibitor and induces cell cycle arrest either at G1→S transition or at the G2→M transition, depending on the cell line. […] The control cells treated with DMSO continue to proliferate until they reach confluence, at which time they are contact inhibited and the Cell Index recording levels off. […]. Taken together, using the RT-CES system to dynamically monitor drug interaction with the target cells offers the user the opportunity to understand the mechanism of drug action and its mode of interaction with the target cell.

A549 cells [3] = assay: Flow cytometry cell cycle analysis of A549 cells; format: cell-based, Human; conditions: 100 μM
Cos-7 cells = assay: RT-CES monitoring of morphological changes in Cos-7 cells; format: cell-based; conditions: serum starved Cos-7 cells; 50 nanograms/mL
Protocol: Cells were seeded in wells of a 16 well monitoring device (16× E-Plate) of the present invention that engaged a device station of a cell-substate monitoring system. The device station was positioned in an incubator held at 37 degrees C. and 5% CO2. The cells were serum starved for 8 hours and then stimulated with 50 nanograms/mL of EGF. […] Impedance was monitored at 3 minute intervals for 2 hours and then at 1 hour intervals for 14 hours. The cell index was calculated by the system and plotted as a function of time. […] The arrow indicates the point of EGF addition.

H460 cells = assay: RT-CES time-dependent cell index of drug-treated H460 cells; format: cell-based, human
Protocol: The device was positioned on a device station that was located in an incubator maintaining conditions of 37 degrees C. and 5% CO2. […] The cell-substrate impedance monitoring system calculated the cell index at each time point monitored and plotted the cell index as a function of time.
The device was positioned on a device station that was located in an incubator maintaining conditions of 37 degrees C. and 5% CO2.

A549 cells [4] = assay: Annexin V staining of A549 cells; format: cell-based, Human; conditions: 12.5 nM for 20 hours
Protocol: FIG. 20. Dynamic monitoring of drug interaction with target cells using a cell-substrate imepdnace monitoring system of the presnet invention. (A) A549 cells were seeded in a device of present invention at a density of 10,000 cells per well and the cells were continuously monitored up to 24 hours at which point paclitaxel was added at the indicated final concentrations. (B) Annexin V staining of A549 cells treated with DMSO or 12.5 nM paclitaxel for 20 hours.
as §1, with “The phenomenon observed in FIG. 20A would've been easily missed by traditional single-point assays such as MTT.” left out

[5] = tested on: NK-92-mediated cytolysis of A549 cells; assay: Inhibition of NK-mediated cytolysis of target cells by signaling pathway inhibitors (RT-CES); format: cell-based, human; conditions: NK-92 pre-incubated with inhibitor, E/T 16:1
Protocol: FIG. 31. Specificity of NK-92 mediated cytolysis of target cells. (A) A549 cells were seeded in the wells of E-plates. Twenty four hours after seeding NK-cells at a density of 16:1 (E/T ratio) were pre-incubated with the different concentrations of the MEK inhibitor PD 98059 for thirty minutes and then added to A549 cells at the indicated time point (arrow). The viability of A549 cells were continually monitored using the RT-CES system. (B) The extent of NK-92 mediated cytolystic activity in the presence of MEK inhibitor was calculated at the indicated times post-NK addition as described in materials and methods section. (C) The effect of P13 Kinase inhibitor Wortmannin on NK-92 mediated cytolysis of A549 cells. […] (D) Percent cytolytic activity of NK-92 cells was calculated at the end of the experiment described in (C).
In this example, a microelectronic sensor-based platform, the RT-CES (real time electronic sensing) system, is introduced for label free assessment of natural killer (NK) cell-mediated cytolytic activity. The RT-CES system was used to dynamically and quantitatively monitor NK-mediated cytolysis of 9 different target cell lines, including cancer cell lines commonly used in laboratories. […] Cell growth was dynamically monitored using the RT-CES system for a period of 24-34 hours, depending on the experiment until they reached log growth phase and formed a monolayer. […]

O=c1[nH]cc(F)c(=O)[nH]1 [5-Fluorouracil]
cell index curve pattern [1]: going up first and then going down

Cn1cnc2c(NCc3ccccc3)nc(NCCO)nc21 [olomoucine]
cell index response ([1]; 100 uM, significant number of cell types tested, for some length of time (10, 20 or 30 hrs)): near-constant cell index | Cell Index trace (A549 cells [2]; exponentially growing A549 cells, 100 μM): level off and remain in a steady state | cell cycle analysis by flow cytometry (A549 cells [3]): cell cycle arrest at the G2→M transition

epidermal growth factor [EGF]
cell index response (morphological change) (Cos-7 cells): initial jump in cell index

CN[C@H]1CCc2cc(OC)c(OC)c(OC)c2-c2ccc(OC)c(=O)cc21 [colcemid]
cell index curve pattern [1]: going down and then going up

COc1cccc2c1C(=O)c1c(O)c3c(c(O)c1C2=O)C[C@@](O)(C(=O)CO)C[C@@H]3O[C@H]1C[C@H](N)[C@H](O)[C@H](C)O1 [doxorubicin]
time after treatment at which cell index reached a peak and started decreasing ([1]; 3.13 uM, most cell types tested, depending on cell type): 10 to 20 h

CC(=O)O[C@H]1C(=O)[C@@]2(C)[C@H]([C@H](OC(=O)c3ccccc3)[C@]3(O)C[C@H](OC(=O)[C@H](O)[C@@H](NC(=O)c4ccccc4)c4ccccc4)C(C)=C1C3(C)C)[C@]1(OC(C)=O)CO[C@@H]1C[C@@H]2O [paclitaxel]
time over which cell index exhibited a near-constant value (H460 cells; 33 nM): about 15 hours | cell index change after compound addition (H460 cells; concentration between 67 nM and 500 nM): gradual decrease in cell index | duration of initial decrease in cell index ([1]; 0.78-12.5 nM): 15 to 20 h | duration of initial cell index decrease before cell index increase ([1]; nM concentration, varies between cell types): about 15 hrs | effect on A549 cell index (A549 cells [2]; human): initially induces a cytotoxic effect | Annexin V staining (A549 cells [4]): cell death

CC[C@]1(O)C[C@@H]2CN(CCc3c([nH]c4ccccc34)[C@@](C(=O)OC)(c3cc4c(cc3OC)N(C)[C@H]3[C@@](O)(C(=O)OC)[C@H](OC(C)=O)[C@]5(CC)C=CCN6CC[C@]43[C@@H]65)C2)C1 [vinblastin]
cell index curve pattern [1]: going down and then going up

COC[C@H]1OC(=O)c2coc3c2[C@@]1(C)C1=C(C3=O)[C@@H]2CCC(=O)[C@@]2(C)C[C@H]1OC(C)=O [Wortmannin]
effect of inhibitor alone on A549 baseline (A549 cells [2]): minimal effect on the baseline | inhibition of NK-92-mediated cytolysis of A549 cells [5]: dose-dependently inhibited

COc1cccc(-c2cc(=O)c3ccccc3o2)c1N [PD98059]
effect of inhibitor alone on A549 baseline (A549 cells [2]): minimal effect on the baseline | inhibition of NK-92-mediated cytolysis of A549 cells [5]: dose-dependently inhibited

CC[C@H](CO)Nc1nc(NCc2ccccc2)c2ncn(C(C)C)c2n1 [roscovitine]
cell index curve pattern [1]: near-constant
